Structures can show the parent of a compound that is named as a salt.
Tests used:
[1] = Solubility determination in deionized water; type: physicochemical; settings: for Solubility S: ultrasonication, stepwise addition of water; for Dissolution result: visual observation
Experimental: About 2 mg of each of the various crystalline acidic salts and the compound of formula (I) in free form was precisely weighed out into a 2 mL glass vial, and about 100 μL of deionized water was added each time; the mixture was ultrasonicated, and if the compound was not dissolved, the step of adding deionized water and performing ultrasonication was repeated until the compound was completely dissolved or the concentration was <0.2 mg/mL. The total volume of the water added was recorded, the dissolution behavior and result were observed, and the solubility of each compound was calculated.

[2] = Hygroscopic behavior test by dynamic vapor sorption (DVS); type: physicochemical; settings: for Hygroscopic weight gain %: 25° C., DVS
Excerpt: The experimental method of characterizing the crystalline acidic salts of the compound of formula (I) using dynamic vapor sorption (DVS) is as follows: a small amount of crystalline acidic salt powder of the compound of formula (I) was placed in a precision sample pan that came with the instrument; after the sample was loaded, the aluminum pan was sent into the instrument for analysis. In the present patent, the instruments used for dynamic vapor sorption were all the DVS Intrinsic model, the experimental parameter was set to using nitrogen as a carrier gas, the constant temperature was set to 25° C., the rate of mass percentage change over a unit of time (dm/dt)=0.01%/min was used as a criterion for determining if an equilibrium is reached, and the program humidity change cycle was set as follows: the initial relative humidity was 0%, the relative humidity was 90% at the end of the cycle, 2 cycles were set, and each 10% R.H. change was a step.
The inventors of the present invention measured the hygroscopic weight gains of each of the various crystalline forms in various relative humidity conditions (hygroscopic weight gain/pre-hygroscopic weight[…]) according to the dynamic vapor sorption method, and assessed the hygroscopicity of the different crystalline compounds.

SMILES | Solubility S [1] | Dissolution result [1] | Hygroscopic weight gain % ([2]; relative humidity 0.0 %) [%] | Hygroscopic weight gain % ([2]; relative humidity 10.0 %) [%] | Hygroscopic weight gain % ([2]; relative humidity 20.0 %) [%] | Hygroscopic weight gain % ([2]; relative humidity 30.0 %) [%] | Hygroscopic weight gain % ([2]; relative humidity 40.0 %) [%] | Hygroscopic weight gain % ([2]; relative humidity 50.0 %) [%] | Hygroscopic weight gain % ([2]; relative humidity 60.0 %) [%] | Hygroscopic weight gain % ([2]; relative humidity 70.0 %) [%] | Hygroscopic weight gain % ([2]; relative humidity 80.0 %) [%] | Hygroscopic weight gain % ([2]; relative humidity 90.0 %) [%] | hygroscopic weight gain [2]
Cc1nc(NC(=O)N2CCC(C)(C)C2=O)ccc1Oc1ccnc(-c2cnn(C)c2)c1 [Fumarate crystalline form I, 3,3-dimethyl-N-(6-methyl-5-((2-(1-methyl-1H-pyrazol-4-yl)pyridin-4-yl)oxy)pyridin-2-yl)-2-oxopyrrolidine-1-carboxamide] | S > 20 mg/mL | Clear solution | – | – | – | – | – | – | – | – | – | – | –
Cc1nc(NC(=O)N2CCC(C)(C)C2=O)ccc1Oc1ccnc(-c2cnn(C)c2)c1 [Citrate crystalline form I, 3,3-dimethyl-N-(6-methyl-5-((2-(1-methyl-1H-pyrazol-4-yl)pyridin-4-yl)oxy)pyridin-2-yl)-2-oxopyrrolidine-1-carboxamide] | S > 20 mg/mL | Clear solution | – | – | – | – | – | – | – | – | – | – | –
Cc1nc(NC(=O)N2CCC(C)(C)C2=O)ccc1Oc1ccnc(-c2cnn(C)c2)c1 [Malate crystalline form I, 3,3-dimethyl-N-(6-methyl-5-((2-(1-methyl-1H-pyrazol-4-yl)pyridin-4-yl)oxy)pyridin-2-yl)-2-oxopyrrolidine-1-carboxamide] | S > 20 mg/mL | Clear solution | – | – | – | – | – | – | – | – | – | – | –
Cc1nc(NC(=O)N2CCC(C)(C)C2=O)ccc1Oc1ccnc(-c2cnn(C)c2)c1 [Hydrochloride crystalline form I, 3,3-dimethyl-N-(6-methyl-5-((2-(1-methyl-1H-pyrazol-4-yl)pyridin-4-yl)oxy)pyridin-2-yl)-2-oxopyrrolidine-1-carboxamide] | S > 20 mg/mL | Clear solution | 0.00 | 0.13 | 0.24 | 0.34 | 0.42 | 0.52 | 0.63 | 0.81 | 1.37 | 19.40 | less than 10%
Cc1nc(NC(=O)N2CCC(C)(C)C2=O)ccc1Oc1ccnc(-c2cnn(C)c2)c1 [Methanesulfonate crystalline form II, 3,3-dimethyl-N-(6-methyl-5-((2-(1-methyl-1H-pyrazol-4-yl)pyridin-4-yl)oxy)pyridin-2-yl)-2-oxopyrrolidine-1-carboxamide] | S > 20 mg/mL | Clear solution | 0.00 | 0.11 | 0.18 | 0.20 | 0.24 | 0.31 | 0.88 | 8.93 | 12.44 | 23.15 | –
Cc1nc(NC(=O)N2CCC(C)(C)C2=O)ccc1Oc1ccnc(-c2cnn(C)c2)c1 [Compound in free form, 3,3-dimethyl-N-(6-methyl-5-((2-(1-methyl-1H-pyrazol-4-yl)pyridin-4-yl)oxy)pyridin-2-yl)-2-oxopyrrolidine-1-carboxamide] | S < 1.5 mg/mL | Not clear | – | – | – | – | – | – | – | – | – | – | –

Next, values leading:

Solubility S [1] | Dissolution result [1] | Hygroscopic weight gain % ([2]; relative humidity 0.0 %) [%] | Hygroscopic weight gain % ([2]; relative humidity 10.0 %) [%] | Hygroscopic weight gain % ([2]; relative humidity 20.0 %) [%] | Hygroscopic weight gain % ([2]; relative humidity 30.0 %) [%] | Hygroscopic weight gain % ([2]; relative humidity 40.0 %) [%] | Hygroscopic weight gain % ([2]; relative humidity 50.0 %) [%] | Hygroscopic weight gain % ([2]; relative humidity 60.0 %) [%] | Hygroscopic weight gain % ([2]; relative humidity 70.0 %) [%] | Hygroscopic weight gain % ([2]; relative humidity 80.0 %) [%] | Hygroscopic weight gain % ([2]; relative humidity 90.0 %) [%] | hygroscopic weight gain [2] | SMILES
S > 20 mg/mL | Clear solution | 0.00 | 0.83 | 1.79 | 2.42 | 2.88 | 3.32 | 3.77 | 4.44 | 5.17 | 10.61 | – | Cc1nc(NC(=O)N2CCC(C)(C)C2=O)ccc1Oc1ccnc(-c2cnn(C)c2)c1 [Tartrate crystalline form I, 3,3-dimethyl-N-(6-methyl-5-((2-(1-methyl-1H-pyrazol-4-yl)pyridin-4-yl)oxy)pyridin-2-yl)-2-oxopyrrolidine-1-carboxamide]
S > 20 mg/mL | Clear solution | – | – | – | – | – | – | – | – | – | – | – | Cc1nc(NC(=O)N2CCC(C)(C)C2=O)ccc1Oc1ccnc(-c2cnn(C)c2)c1 [Sulfate crystalline form I, 3,3-dimethyl-N-(6-methyl-5-((2-(1-methyl-1H-pyrazol-4-yl)pyridin-4-yl)oxy)pyridin-2-yl)-2-oxopyrrolidine-1-carboxamide]
S > 20 mg/mL | Clear solution | 0.02 | 1.19 | 1.86 | 2.32 | 2.78 | 3.37 | 3.97 | 4.66 | 5.46 | 6.383 | – | Cc1nc(NC(=O)N2CCC(C)(C)C2=O)ccc1Oc1ccnc(-c2cnn(C)c2)c1 [Phosphate crystalline form I, 3,3-dimethyl-N-(6-methyl-5-((2-(1-methyl-1H-pyrazol-4-yl)pyridin-4-yl)oxy)pyridin-2-yl)-2-oxopyrrolidine-1-carboxamide]
